The text below walks through data of US20230331719A1, “Pyrazolopyridine Compounds and Methods of Inhibiting IRE1 Using Same” (OPTIKIRA, LLC, priority 2020, published 2023).

The target in one test is IRE1α RNase (Homo sapiens (Human), UniProt O75460). As to the kind of experiment: Inhibition of RNase activity of IRE1α. The class given is biochemical. The note with it: 0.325 nM enzyme, 100 nM substrate, 20 minutes at room temperature. As to the method:
The RNase reactions were performed in 384 well black ProxiPlate-384 Plus plates (PERKIN Elmer) using 50 mM Tris assay buffer with 0.5 mM MgCl2, 10 mM KCl, 0.03 % Tween, 2 mM DTT and 1% DMSO. Test compounds were prepared on the day of assay and dispensed using D300 digital dispenser as a 10-point ½ log dilution series in duplicate, normalized to a final DMSO concentration of […]. Test compounds were pre-incubated for 30 min at room temperature with IRE1α kinase (E31-11G from Signal Chem) in 2.5 µL of assay buffer. Then 2.5 µl of assay buffer containing substrate (5′ Alexa Fluor 647 - rCrArUrGrUrC rCrGrCrArGrCrGrCrArUrG - Iowa Black RQ quencher 3′) (SEQ ID NO:1) added, giving a final concentration of enzyme of 0.325 nM and of substrate of 100 nM. After 20 minutes incubation at room temperature the reactions were stopped by added 5 µL of 5 M urea, incubated at room temperature for 10 minutes and fluorescence measured on a plate reader (EnVision, PerkinElmer). IC50 values calculated by fitting a sigmoidal curve to percent inhibition of control versus compound concentration.

The subject of a further test is XBP1. As to the kind of experiment: Cellular XBP1 splicing assay (NanoLuc luciferase reporter). It is filed as cell-based. The note with it: Homo sapiens; ARPE-19 cells stably expressing XBP1-nano-luciferase; thapsigargin 150 nM, 4 hour incubation. As to the method:
ARPE-19 cells stably expressing XBP1 (a.a. 1-376) with nano-luciferase gene sequence linked so it is in frame when XBP1 is spliced, were cultured in F12 media, 10 % FBS, 0.044% sodium bicarbonate, 150 µg/ml hygromycin B and seeded for assays at 5,000 cells in 384 well plates in culture media without hygromycin B and incubated at 37° C./5% CO2. After overnight incubation test compounds were added to the cell plate in a 10-point ½ log dilution series in duplicate (final DMSO concentration 0.117 %). After further incubation of 30 minutes thapsigargin was added (final concentration 150 nM) and then another 4 hour incubation. A NanoLuc luciferase assay (Promega) was used according to the manufacturer’s instructions to detect the luciferase and luminescence measured on a luminometer (EnVision, PerkinElmer). IC50 values calculated by fitting a sigmoidal curve to percent inhibition of control of compound concentration.

The next test has as its target IRE1α kinase (Homo sapiens (Human), UniProt O75460). The test is described as follows: Inhibition of kinase activity of IRE1α (ADP-Glo). The class given is biochemical. The note with it: 5 nM IRE1α kinase, 100 µM ATP, 4 hours at room temperature. On the procedure: The kinase reactions were performed in 384 well white ProxiPlate-384 Plus plates (PERKIN Elmer 6008280) using 25 mM MOPS assay buffer with 1 mM dithiothreitol, 25 mM MgCl2, 12.5 mM β-glycerophosphate, 5 mM EGTA, and 50 µg/mL BSA. Test compounds were prepared on the day of assay and dispensed using D300 digital dispenser as a 10-point ½ log dilution series in duplicate, normalized to a final DMSO concentration of 3%. Test compounds were pre-incubated for 30 min at room temperature with 10 nM IRE1α kinase (E31-11G from Signal Chem) in 2.5 µL of assay buffer and the reaction started by addition of 2.5 µL of ATP in assay buffer, to give a final ATP concentration of 100 µm and 5 nM IRE1α kinase. After 4 hours incubation at room temperature the reactions were stopped and the kinase activity determined using the ADP-Glo™ reagent from Promega, according to the manufacturer’s instructions. Luminescence was measured on a luminometer (EnVision, PerkinElmer) and IC50 values calculated by fitting a sigmoidal curve to percent inhibition of control versus Log10 of compound concentration.

Chain of IRE1α kinase (O75460 468-977): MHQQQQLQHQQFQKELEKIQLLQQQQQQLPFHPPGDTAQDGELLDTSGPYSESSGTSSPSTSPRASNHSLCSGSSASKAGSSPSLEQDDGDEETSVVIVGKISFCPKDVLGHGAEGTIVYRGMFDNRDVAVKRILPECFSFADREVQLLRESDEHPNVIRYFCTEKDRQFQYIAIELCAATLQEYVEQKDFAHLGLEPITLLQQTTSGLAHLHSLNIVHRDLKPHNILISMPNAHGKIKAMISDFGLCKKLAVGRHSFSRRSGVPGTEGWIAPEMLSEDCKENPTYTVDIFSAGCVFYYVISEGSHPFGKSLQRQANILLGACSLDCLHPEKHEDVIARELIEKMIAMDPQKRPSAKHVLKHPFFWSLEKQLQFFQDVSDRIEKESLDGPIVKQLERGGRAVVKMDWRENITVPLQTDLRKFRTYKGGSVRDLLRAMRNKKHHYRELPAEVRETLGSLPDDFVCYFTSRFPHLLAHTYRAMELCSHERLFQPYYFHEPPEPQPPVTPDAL
Chain of IRE1α RNase (O75460 468-977): as above

As to `CC(C)n1nc(-c2cc(F)c(NS(=O)(=O)Cc3ccccc3F)cc2F)c2c(N)ncc([C@H]3CC[C@H](N4CCOCC4)CC3)c21` [Compound A11, N-(4-(4-amino-1-isopropyl-7-((1r,4r)-4-morpholinocyclohexyl)-1H-pyrazolo[4,3-c]pyridin-3-yl)-2,5-difluorophenyl)-1-(2-fluorophenyl)methanesulfonamide], the IC50 on IRE1α RNase amounted to 4.8 nM; in the test on XBP1 it was 11.6 nM; against IRE1α kinase it was 2.1 nM.
`Cc1ccc(F)c(S(=O)(=O)Nc2cc(F)c(-c3nn(C(C)C)c4c3c(N)ncc4[C@H]3CC[C@H](NC[C@@H](C)F)CC3)cc2F)c1` [Compound A24, N-(4-(4-amino-7-((1R,4r)-4-(((R)-2-fluoropropyl)amino)cyclohexyl)-1-isopropyl-1H-pyrazolo[4,3-c]pyridin-3-yl)-2,5-difluorophenyl)-2-fluoro-5-methylbenzenesulfonamide]: the midpoint of inhibition at IRE1α kinase, the IC50, lay at 0.893 nM.
As for `Cc1ccc(F)c(S(=O)(=O)Nc2cc(F)c(-c3nn(C(C)C)c4c3c(N)ncc4[C@H]3CC[C@H](N4CCOCC4)CC3)cc2F)c1` [Compound A12, N-(4-(4-amino-1-isopropyl-7-((1r,4r)-4-morpholinocyclohexyl)-1H-pyrazolo[4,3-c]pyridin-3-yl)-2,5-difluorophenyl)-2-fluoro-5-methylbenzenesulfonamide], the figures for the IC50 on IRE1α RNase, in the test on XBP1 and against IRE1α kinase were 3.4 nM, 7.7 nM and 2.1 nM, respectively.
In the case of `CC(C)n1nc(-c2cc(F)c(NS(=O)(=O)c3cc(Cl)ccc3F)cc2F)c2c(N)ncc([C@H]3CC[C@H](N4CCOCC4)CC3)c21` [Compound A20, N-(4-(4-amino-1-isopropyl-7-((1r,4r)-4-morpholinocyclohexyl)-1H-pyrazolo[4,3-c]pyridin-3-yl)-2,5-difluorophenyl)-5-chloro-2-fluorobenzenesulfonamide], the results for the IC50 against IRE1α RNase, with XBP1 and at IRE1α kinase were 3.5 nM, 10.3 nM and 2.3 nM, respectively.
On to `COCCN[C@H]1CC[C@H](c2cnc(N)c3c(-c4cc(F)c(NS(=O)(=O)c5cc(C)ccc5F)cc4F)nn(C(C)C)c32)CC1` [Compound A5, N-(4-(4-amino-1-isopropyl-7-((1r,4r)-4-((2-methoxyethyl)amino)cyclohexyl)-1H-pyrazolo[4,3-c]pyridin-3-yl)-2,5-difluorophenyl)-2-fluoro-5-methylbenzenesulfonamide], for which the results for the IC50 against IRE1α RNase and in the test on XBP1 were 3.1 nM and 6.8 nM, respectively.
With `CC(C)n1nc(-c2cc(F)c(NS(=O)(=O)c3ccccc3F)cc2F)c2c(N)ncc([C@H]3CC[C@@H](N4CCOCC4)CC3)c21` [Compound A14, N-(4-(4-amino-1-isopropyl-7-((1s,4s)-4-morpholinocyclohexyl)-1H-pyrazolo[4,3-c]pyridin-3-yl)-2,5-difluorophenyl)-2-fluorobenzenesulfonamide], the IC50 against IRE1α RNase was 466 nM; in the test on XBP1, 1650 nM.
Regarding `[2H]C([2H])([2H])Oc1ccc(F)c(S(=O)(=O)Nc2cc(F)c(-c3nn(C(C)C)c4c3c(N)ncc4[C@H]3CC[C@H](NCCOC)CC3)cc2F)c1` [Compound A2, N-(4-(4-amino-1-isopropyl-7-((1r,4r)-4-((2-methoxyethyl)amino)cyclohexyl)-1H-pyrazolo[4,3-c]pyridin-3-yl)-2,5-difluorophenyl)-2-fluoro-5-(methoxy-d3)benzenesulfonamide], the half-inhibitory concentration (IC50) at IRE1α RNase was 4.8 nM; in the test with XBP1, 12.2 nM.
Turning to `COCCN[C@H]1CC[C@H](c2cnc(N)c3c(-c4cc(F)c(NS(=O)(=O)c5cc(OC(F)(F)F)ccc5Cl)cc4F)nn(C(C)C)c32)CC1` [Compound A3, N-(4-(4-amino-1-isopropyl-7-((1r,4r)-4-((2-methoxyethyl)amino)cyclohexyl)-1H-pyrazolo[4,3-c]pyridin-3-yl)-2,5-difluorophenyl)-2-chloro-5-(trifluoromethoxy)benzenesulfonamide], the IC50 on IRE1α RNase was 3.4 nM; with XBP1, 15 nM.
With `COC(C)(C)CN[C@H]1CC[C@H](c2cnc(N)c3c(-c4cc(F)c(NS(=O)(=O)c5ccccc5F)cc4F)nn(C(C)C)c32)CC1` [Compound A13, N-(4-(4-amino-1-isopropyl-7-((1r,4r)-4-((2-methoxy-2-methylpropyl)amino)cyclohexyl)-1H-pyrazolo[4,3-c]pyridin-3-yl)-2,5-difluorophenyl)-2-fluorobenzenesulfonamide], the IC50 came to 15.5 nM at IRE1α RNase, 17 nM in the test with XBP1 and 3.6 nM against IRE1α kinase.
With `[2H]C([2H])([2H])Oc1ccc(F)c(S(=O)(=O)Nc2cc(F)c(-c3nn(C(C)C)c4c3c(N)ncc4[C@H]3CC[C@H](N4CCOCC4)CC3)cc2F)c1` [Compound A18, N-(4-(4-amino-1-isopropyl-7-((1r,4r)-4-morpholinocyclohexyl)-1H-pyrazolo[4,3-c]pyridin-3-yl)-2,5-difluorophenyl)-2-fluoro-5-(methoxy-d3)benzenesulfonamide], the IC50 against IRE1α RNase is 6 nM; in the test with XBP1, 6.8 nM; against IRE1α kinase, 1.9 nM.
In the same order, the values of `CCOc1ccc(Cl)c(S(=O)(=O)Nc2cc(F)c(-c3nn(C(C)C)c4c3c(N)ncc4[C@H]3CC[C@H](N4CCOCC4)CC3)cc2F)c1` [Compound A17, N-(4-(4-amino-1-isopropyl-7-((1r,4r)-4-morpholinocyclohexyl)-1H-pyrazolo[4,3-c]pyridin-3-yl)-2,5-difluorophenyl)-2-chloro-5-ethoxybenzenesulfonamide] are 4.8 nM, 10.6 nM and 2.1 nM.
Turning to `Cc1ccc(F)c(S(=O)(=O)Nc2cc(F)c(-c3nn(C(C)C)c4c3c(N)ncc4[C@H]3CC[C@H](NC[C@H](C)F)CC3)cc2F)c1` [Compound A23, N-(4-(4-amino-7-((1S,4r)-4-(((S)-2-fluoropropyl)amino)cyclohexyl)-1-isopropyl-1H-pyrazolo[4,3-c]pyridin-3-yl)-2,5-difluorophenyl)-2-fluoro-5-methylbenzenesulfonamide], the half-maximal inhibitory concentration (IC50) against IRE1α kinase is 1.3 nM.
`CC(C)n1nc(-c2cc(F)c(NS(=O)(=O)c3cc(Cl)ccc3Cl)cc2F)c2c(N)ncc([C@H]3CC[C@H](N4CCOCC4)CC3)c21` [Compound A10, N-(4-(4-amino-1-isopropyl-7-((1r,4r)-4-morpholinocyclohexyl)-1H-pyrazolo[4,3-c]pyridin-3-yl)-2,5-difluorophenyl)-2,5-dichlorobenzenesulfonamide]: the IC50 amounted to 3.3 nM at IRE1α RNase, 4.6 nM in the test on XBP1 and 1.6 nM against IRE1α kinase.
